Data as given in US11098010B2 (priority 2017, dated 2021).
Counter-ions that a name gives are not always drawn.

The compounds below were run on HBV rcDNA in HepDE19 cells (assay: HepDE19 assay with bDNA quantitation of HBV rcDNA). Conditions: HepDE19 cells, inhibition of rcDNA formation, 7 day incubation, top concentration 25 μM; read-out: DE-19 bDNA EC50.
Type: cell-based, hepatitis B virus (HBV)
Description: HepDE19 Assay with bDNA Quantitation of HBV rcDNA:
HepDE19 cell culture system is a HepG2 (human hepatocarcinoma) derived cell line that supports HBV DNA replication and cccDNA formation in a tetracycline (Tet)-regulated manner and produces HBV rcDNA and a detectable reporter molecule dependent on the production and maintenance of cccDNA (Guo, et al., 2007, J. Virol. 81:12472-12484).
HepDE19 (50,000 cells/well) were plated in 96-well collagen-coated tissue-culture treated microtiter plates in DMEM/F12 medium supplemented with 10% fetal bovine serum, 1% penicillin-streptomycin and 1 μg/mL tetracycline and incubated in a humidified incubator at 37° C. and 5% CO2 overnight. Next day, the cells were switched to fresh medium without tetracycline and incubated for 4 hours at 37° C. and 5% CO2. The cells were treated with fresh Tet-free medium with compounds at concentrations starting at 25 μM and a serial, ½ log, 8-point, titration series in duplicate. The final DMSO concentration in the assay was 0.5%. The plates were incubated for 7 days in a humidified incubator at 37° C. and 5% CO2. Following a 7 day-incubation, the level of rcDNA present in the inhibitor-treated wells was measured using a Quantigene 2.0 bDNA assay kit (Affymetrix, Santa Clara, Calif.) with HBV specific custom probe set and manufacturers instructions. Concurrently, the effect of compounds on cell viability was assessed using replicate plates, plated at a density of 5,000 cells/well and incubated for 4 days, to determine the ATP content as a measure of cell viability using the cell-titer glo reagent (CTG; Promega Corporation, Madison, Wis.) as per manufacturer's instructions. The plates were read using a Victor luminescence plate reader (PerkinElmer Model 1420 Multilabel counter) and the relative luminescence units (RLU) data generated from each well was calculated as % inhibition of the untreated control wells and analyzed using XL-Fit module in Microsoft Excel to determine EC50 and EC90 (bDNA) and CC50 (CTG) values using a 4-parameter curve fitting algorithm.
Representative compounds of the invention were tested for their abilities to inhibit formation of relaxed circular DNA (rcDNA) in a HepDE19 assay, as described elsewhere herein.

| SMILES | EC50 |
| --- | --- |
| CC1(NC(=O)OCc2ccccn2)CCc2c(C(=O)Nc3ccc(F)c(Cl)c3)ccc(F)c21 (centres unmarked) [Compound 224, O-Pyridin-2-ylmethyl, N-(4-((3-chloro-4-fluorophenyl)carbamoyl)-7-fluoro-1-methyl-2,3-dihydro-1H-inden-1-yl) carbamate] | 11 µM |
| O=C(Nc1ccc(F)c(Cl)c1)c1ccc(F)c2c1OCC2NS(=O)(=O)C1CC1 (single isomer, unassigned) [Compound 207, N-(3-chloro-4-fluorophenyl)-3-(cyclopropanesulfonamido)-4-fluoro-2,3-dihydrobenzofuran-7-carboxamide] | 14 µM |
| O=C(NC1CSc2c(C(=O)Nc3ccc(F)c(Cl)c3)ccc(F)c21)OCc1ccccn1 (centres unmarked) [Compound 66, O-Pyridin-2-ylmethyl, N-(7-((3-chloro-4-fluorophenyl)carbamoyl)-4-fluoro-2,3-dihydrobenzo[b]thiophen-3-yl) carbamate] | 0.44 µM |
| COC(=O)NC1(C)CCc2c(C(=O)Nc3ccc(F)c(Cl)c3)ccc(F)c21 (centres unmarked) [Compound 218, O-Methyl, N-(4-((3-chloro-4-fluorophenyl)carbamoyl)-7-fluoro-1-methyl-2,3-dihydro-1H-inden-1-yl) carbamate] | 1.9 µM |
| O=C(NC1CCc2c(C(=O)Nc3ccc(F)c(Cl)c3)ccnc21)OCc1ccccn1 (centres unmarked) [Compound 266, O-Pyridin-2-ylmethyl, N-(4-((3-chloro-4-fluorophenyl)carbamoyl)-6,7-dihydro-5H-cyclopenta[b]pyridin-7-yl) carbamate] | 0.43 µM |

Same assay, conditions: Hepatitis B virus, HepDE19, 168 h, HepDE19 cells, inhibition of rcDNA formation, 7 day incubation, top concentration 25 μM; read-out: DE-19 bDNA EC50

| SMILES | EC50 |
| --- | --- |
| CC(C)CS(=O)(=O)N[C@H]1CCc2c(C(=O)Nc3ccc(F)c(Cl)c3)ccc(F)c21 [Compound 234, (S)—N-(3-Chloro-4-fluorophenyl)-7-fluoro-1-((2-methylpropyl)sulfonamido)-2,3-dihydro-1H-indene-4-carboxamide] | 0.34 µM |
| O=C(N[C@H]1CCc2c(C(=O)Nc3ccc(F)c(Cl)c3)ccc(F)c21)OCc1ncco1 [Compound 94, O-Oxazol-2-ylmethyl, N—(S)-(4-((3-chloro-4-fluorophenyl)carbamoyl)-7-fluoro-2,3-dihydro-1H-inden-1-yl) carbamate] | 0.07 µM |
| CC(C)NS(=O)(=O)N[C@H]1CCc2c(C(=O)Nc3ccc(F)c(Cl)c3)ccc(F)c21 [Compound 237, (S)-N-(3-chloro-4-fluorophenyl)-7-fluoro-1-((N-isopropylsulfamoyl)amino)-2,3-dihydro-1H-indene-4-carboxamide] | 0.58 µM |
| CNC(=O)NC1c2c(F)ccc(C(=O)Nc3ccc(F)c(F)c3)c2CC1OC (centres unmarked) [Compound 245, N-(3,4-difluorophenyl)-7-fluoro-2-methoxy-1-(3-methylureido)-2,3-dihydro-1H-indene-4-carboxamide] | 4.9 µM |
| O=C1C[C@@H](OC(=O)N[C@H]2CCc3c(C(=O)Nc4ccc(F)c(Cl)c4)ccc(F)c32)CN1 [Compound 72, O—(R)-5-Oxopyrrolidin-3-yl, N—((S)-4-((3-chloro-4-fluorophenyl)carbamoyl)-7-fluoro-2,3-dihydro-1H-inden-1-yl) carbamate] | 0.24 µM |
| CNC(=O)NC1c2c(F)ccc(C(=O)Nc3ccc(F)c(Cl)c3)c2CC1OC (centres unmarked) [Compound 235, N-(3-chloro-4-fluorophenyl)-7-fluoro-2-methoxy-1-(3-methylureido)-2,3-dihydro-1H-indene-4-carboxamide] | 4.5 µM |
| O=C(Nc1ccc(F)c(Cl)c1)c1ccc(F)c2c1CC[C@@H]2NS(=O)(=O)C1CCCC1 [Compound 239, (S)—N-(3-Chloro-4-fluorophenyl)-1-(cyclopentanesulfonamido)-7-fluoro-2,3-dihydro-1H-indene-4-carboxamide] | 0.24 µM |
| Cn1cnc(COC(=O)N[C@H]2CCc3c(C(=O)Nc4ccc(F)c(Cl)c4)ccc(F)c32)n1 [Compound 102, O-(1-Methyl-1H-1,2,4-triazol-3-yl)methyl, N—(S)-(4-((3-chloro-4-fluorophenyl)carbamoyl)-7-fluoro-2,3-dihydro-1H-inden-1-yl) carbamate] | 0.07 µM |
| O=C(N[C@H]1CCc2c(C(=O)Nc3ccc(F)c(Cl)c3)ccc(F)c21)OC1CCCC1 [Compound 131, O-Cyclopentyl, N—(S)-(4-((3-chloro-4-fluorophenyl)carbamoyl)-7-fluoro-2,3-dihydro-1H-inden-1-yl)carbamate] | 0.59 µM |
| Cn1nccc1C(=O)N[C@H]1CCc2c(C(=O)Nc3ccc(F)c(Cl)c3)ccc(F)c21 [Compound 100, (S)—N-(4-((3-Chloro-4-fluorophenyl)carbamoyl)-7-fluoro-2,3-dihydro-1H-inden-1-yl)-1-methyl-1H-pyrazole-5-carboxamide] | 0.74 µM |
| O=C1CC[C@H](OC(=O)N[C@H]2CCc3c(C(=O)Nc4ccc(F)c(Cl)c4)ccc(F)c32)CN1 [Compound 200, O—(S)-6-Oxopiperidin-3-yl, N—((S)-4-((3-chloro-4-fluorophenyl)carbamoyl)-7-fluoro-2,3-dihydro-1H-inden-1-yl) carbamate] | 0.43 µM |
| O=C(N[C@H]1CCc2c(C(=O)Nc3ccc(F)c(Cl)c3)ccc(F)c21)OCc1nc[nH]n1 [Compound 195, O-(1H-1,2,4-Triazol-3-yl)methyl, N—(S)-(4-((3-chloro-4-fluorophenyl)carbamoyl)-7-fluoro-2,3-dihydro-1H-inden-1-yl) carbamate] | 0.1 µM |

Same assay, conditions: Hepatitis B virus, HepDE19, 168 h, read-out: DE-19 bDNA EC50 (μM), HepDE19 cells, inhibition of rcDNA formation, 7 day incubation, top concentration 25 μM

| SMILES | EC50 |
| --- | --- |
| O=C(N[C@H]1CCc2c(C(=O)Nc3ccc(F)c(Cl)c3)ccc(F)c21)OC[C@@H]1CCCN1CC(F)(F)F [Compound 108, O-[(2S)-1-(2,2,2-Trifluoroethyl)pyrrolidin-2-yl]methyl, N-[(1S)-4-[(3-chloro-4-fluorophenyl)carbamoyl]-7-fluoro-2,3-dihydro-1H-inden-1-yl]carbamate Hydrochloride] | 0.72 µM |
| O=C(N[C@H]1CCc2c(C(=O)Nc3ccc(F)c(Cl)c3)ccc(F)c21)OCc1ncccn1 [Compound 79, O-Pyrimidin-2-ylmethyl, N—(S)-(4-((3-chloro-4-fluorophenyl)carbamoyl)-7-fluoro-2,3-dihydro-1H-inden-1-yl) carbamate] | 0.12 µM |
| COC(=O)N[C@@H]1c2cccc(C(=O)Nc3ccc(F)c(Cl)c3)c2C[C@H]1OC [Compound 130, O-Methyl, N-((1R,2R)-4-((3-chloro-4-fluorophenyl)carbamoyl)-2-methoxy-2,3-dihydro-1H-inden-1-yl)carbamate] | 0.1 µM |
| CN(C)c1cccc(COC(=O)N[C@H]2CCc3c(C(=O)Nc4ccc(F)c(Cl)c4)ccc(F)c32)n1 [Compound 48, O-(6-(Dimethylamino)pyridin-2-yl)methyl, N—(S)-(4-((3-chloro-4-fluorophenyl)carbamoyl)-7-fluoro-2,3-dihydro-1H-inden-1-yl) carbamate] | 0.16 µM |
| O=C(N[C@H]1CCc2c(C(=O)Nc3ccc(F)c(Cl)c3)ccc(F)c21)OCc1ccc(C(F)(F)F)cn1 [Compound 169, O-(5-(Trifluoromethyl)pyridin-2-yl)methyl, N—(S)-(4-((3-chloro-4-fluorophenyl)carbamoyl)-7-fluoro-2,3-dihydro-1H-inden-1-yl) carbamate] | 2.2 µM |
| O=C(N[C@H]1CCc2c(C(=O)Nc3ccc(F)c(Cl)c3)ccc(F)c21)OCC1CCN(CC(F)(F)F)CC1 [Compound 62, O-(1-(2,2,2-Trifluoroethyl)piperidin-4-yl)methyl, N—(S)-(4-((3-chloro-4-fluorophenyl)carbamoyl)-7-fluoro-2,3-dihydro-1H-inden-1-yl) carbamate] | 1.8 µM |

Same assay, conditions: read-out: DE-19 bDNA EC50; HepDE19 cells, inhibition of rcDNA formation, 7 day incubation, top concentration 25 μM

| SMILES | EC50 |
| --- | --- |
| COC(=O)NC1CSc2c(C(=O)Nc3ccc(F)c(F)c3)cccc21 (single isomer, unassigned) [Compound 31, O-Methyl, N-(7-((3,4-difluorophenyl)carbamoyl)-2,3-dihydrobenzo[b]thiophen-3-yl)carbamate] | > 25 µM |
| COC(=O)NC1COc2c(C(=O)Nc3ccc(F)c(Cl)c3)ccc(F)c21 (centres unmarked) [Compound 187, O-Methyl, N-(7-((3-chloro-4-fluorophenyl)carbamoyl)-4-fluoro-2,3-dihydrobenzofuran-3-yl) carbamate] | 23 µM |

Same assay, conditions: read-out: DE-19 bDNA EC50; HepDE19 cells, inhibition of rcDNA formation, 7 day incubation, top concentration 25 μM; hydrochloride

| SMILES | EC50 |
| --- | --- |
| O=C(NC1CSc2c(C(=O)Nc3ccc(F)c(F)c3)cccc21)OCc1ccccn1 (single isomer, unassigned) [Compound 34, O-Pyridin-2-ylmethyl, N-(7-((3,4-difluorophenyl)carbamoyl)-2,3-dihydrobenzo[b]thiophen-3-yl)carbamate hydrochloride] | > 25 µM |
